Biological target: T1, Ubiquitin-like modifier-activating enzyme 1 (Homo sapiens, UniProt P22314)
T1 sequence (P22314 whole entry): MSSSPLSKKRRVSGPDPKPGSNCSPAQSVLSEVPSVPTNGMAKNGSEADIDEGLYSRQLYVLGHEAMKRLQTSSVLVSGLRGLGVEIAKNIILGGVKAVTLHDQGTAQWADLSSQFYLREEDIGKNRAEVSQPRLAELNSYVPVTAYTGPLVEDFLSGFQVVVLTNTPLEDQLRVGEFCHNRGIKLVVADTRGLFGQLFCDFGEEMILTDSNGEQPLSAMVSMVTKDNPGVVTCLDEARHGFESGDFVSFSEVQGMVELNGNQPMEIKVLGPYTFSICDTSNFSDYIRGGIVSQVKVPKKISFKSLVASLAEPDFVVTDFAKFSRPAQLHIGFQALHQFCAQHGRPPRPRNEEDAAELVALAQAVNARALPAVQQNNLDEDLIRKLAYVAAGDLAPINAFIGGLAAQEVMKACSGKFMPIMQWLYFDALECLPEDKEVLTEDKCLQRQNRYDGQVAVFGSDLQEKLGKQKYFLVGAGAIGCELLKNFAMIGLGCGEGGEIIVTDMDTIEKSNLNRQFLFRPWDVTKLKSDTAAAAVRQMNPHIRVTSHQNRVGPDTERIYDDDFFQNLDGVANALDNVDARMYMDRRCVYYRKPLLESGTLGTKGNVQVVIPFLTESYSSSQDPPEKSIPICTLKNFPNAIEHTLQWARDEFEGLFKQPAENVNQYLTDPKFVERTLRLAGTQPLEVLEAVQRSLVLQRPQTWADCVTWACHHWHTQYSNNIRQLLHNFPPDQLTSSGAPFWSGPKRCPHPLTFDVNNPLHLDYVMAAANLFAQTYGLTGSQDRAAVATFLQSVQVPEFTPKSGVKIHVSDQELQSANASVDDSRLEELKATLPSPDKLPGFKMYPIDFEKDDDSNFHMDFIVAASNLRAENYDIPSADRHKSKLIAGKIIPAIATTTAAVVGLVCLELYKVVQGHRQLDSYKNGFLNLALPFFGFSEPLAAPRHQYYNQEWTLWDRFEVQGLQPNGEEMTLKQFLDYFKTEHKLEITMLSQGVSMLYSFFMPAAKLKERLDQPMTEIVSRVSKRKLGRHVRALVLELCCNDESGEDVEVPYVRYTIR
Test: Inhibition of human recombinant E1-ubiquitin complex formation

CC(C)(O)/C=C/[C@@]12[C@H]3[C@@H](O)[C@@H]4O[C@@H]4[C@]1(O)OC(C)(C)[C@@H]2C=C1C(=O)[C@H]2O[C@H]2[C@H](O)[C@H]13 [PANEPOPHENANTHRIN]
IC50: 40.4 µM

From ChEMBL document CHEMBL1150661, “Panepophenanthrin, from a mushroom strain, a novel inhibitor of the ubiquitin-activating enzyme” (J Nat Prod, 2002)
